From the supplement of paper PMC10307832

Columns and labels:
Assay in all cases: relative viability (nuclei count vs DMSO), 5 days (fraction); higher = more cells survive
[1] = compound: C1=CC=C2C(=C1)C=CC(=C2SSC3=C(C=CC4=CC=CC=C43)O)O [IPA-3] + Nc1nc2[nH]cc(CCc3ccc(C(=O)N[C@@H](CCC(=O)O)C(=O)O)cc3)c2c(=O)[nH]1 [Pemetrexed] (partner 0.2 µM)
In short: (§1)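 For relative viability, nuclei counts in treated wells were divided by those in vehicle wells. Lung cancer cell lines had been pin-tool dosed in 1536-well plates the day after seeding and cultured for 5 days, then fixed and stained in one step (final 0.05% Triton X-100, 1% formaldehyde, 1 ug/ml Hoechst) and imaged at 4×. Doses were one drug alone or a fixed anchor-drug dose plus five library-drug doses (not always all listed) in √10 steps, and values are duplicate-plate medians.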

[2] = compound: Cn1c(Nc2ccc(C(F)(F)F)cc2)nc2cc(Oc3ccnc(-c4ncc(C(F)(F)F)[nH]4)c3)ccc21 [RAF265] + CCNC(=O)c1noc(-c2cc(C(C)C)c(O)cc2O)c1-c1ccc(CN2CCOCC2)cc1 [Luminespib] (partner 0.01 µM)
In short: as §1

[3] = compound: Cc1ccc(-n2nc(C(C)(C)C)cc2NC(=O)Nc2ccc(OCCN3CCOCC3)c3ccccc23)cc1 [Doramapimod] + CCNC(=O)c1noc(-c2cc(C(C)C)c(O)cc2O)c1-c1ccc(CN2CCOCC2)cc1 [Luminespib] (partner 0.01 µM)
In short: as §1

[4] = compound: Cc1ccc(-n2nc(C(C)(C)C)cc2NC(=O)Nc2ccc(OCCN3CCOCC3)c3ccccc23)cc1 [Doramapimod] + CC(C)C[C@H](NC(=O)[C@H](Cc1ccccc1)NC(=O)c1cnccn1)B(O)O [Bortezomib] (partner 0.002 µM)
In short: as §1

Cell Line	relative viability ([1]; first compound 0.2 µM)	relative viability ([1]; first compound 0.6325 µM)	relative viability ([1]; first compound 2 µM)	relative viability ([1]; first compound 6.325 µM)	relative viability ([1]; first compound 20 µM)	relative viability ([2]; first compound 0.01 µM)	relative viability ([2]; first compound 0.03162 µM)	relative viability ([2]; first compound 0.1 µM)	relative viability ([2]; first compound 0.3162 µM)	relative viability ([2]; first compound 1 µM)	relative viability ([3]; first compound 0.02 µM)	relative viability ([3]; first compound 0.06325 µM)	relative viability ([3]; first compound 0.2 µM)	relative viability ([3]; first compound 0.6325 µM)	relative viability ([3]; first compound 2 µM)	relative viability ([4]; first compound 0.02 µM)	relative viability ([4]; first compound 0.06325 µM)	relative viability ([4]; first compound 0.2 µM)	relative viability ([4]; first compound 0.6325 µM)	relative viability ([4]; first compound 2 µM)
BEN	0.751	0.843	0.852	0.814	0.774	0.402	0.491	0.534	0.224	0.325	0.537	0.56	0.351	0.13	0.352	0.69	0.785	0.896	0.52	0.684
CAL-12T	1.21	0.983	0.942	1.26	1.24	0.238	0.426	0.341	0.491	0.0919	0.363	0.381	0.345	0.364	0.395	1.01	1.11	1.16	1	0.818
COR-L23	0.212	0.194	0.193	0.198	0.204	0.637	0.655	0.539	0.33	0.324	0.71	0.659	0.787	0.741	0.541	1.12	0.914	0.962	0.997	0.969
COR-L 105	1.22	0.904	1.07	1.18	1.14	0.826	0.821	0.666	0.766	0.385	0.883	0.73	0.645	0.851	0.719	0.848	0.772	0.959	0.807	0.779
ChaGo-K-1	0.257	0.264	0.272	0.281	0.263	0.722	0.666	0.575	0.545	0.396	0.594	0.49	0.595	0.52	0.541	1.04	1.29	1.29	–	0.646
EKVX	0.407	0.439	0.429	0.426	0.582	0.837	0.918	0.984	0.598	0.791	0.92	0.868	0.906	0.914	0.77	1.04	0.997	1.08	0.967	1.11
EMC-BAC-2	0.456	0.461	0.458	0.437	0.464	1.2	0.998	1.01	0.819	0.357	1.28	1.17	1.12	1.22	1.15	1.12	1.12	1.03	1.15	0.961
EPLC-272H	0.415	0.309	0.337	0.355	0.371	0.169	0.224	0.333	0.138	0.177	0.368	0.296	0.741	0.494	0.187	0.873	0.779	0.848	0.881	0.655
H3255	0.572	0.551	0.561	0.527	0.548	0.767	0.876	0.953	–	0.634	0.947	0.844	0.843	0.686	0.697	0.788	0.883	0.833	0.619	0.668
HARA	0.298	0.227	0.249	0.229	0.24	0.64	0.627	0.476	0.509	0.165	0.779	0.688	0.873	–	0.576	1.15	1.03	1.14	1.04	0.994
HCC-15	0.222	0.23	0.214	0.225	0.221	0.27	0.229	0.388	0.159	0.173	0.472	0.425	0.444	–	0.201	1.02	1.05	1.04	0.801	0.907
HCC-44	0.607	0.575	0.588	0.617	0.616	1.17	0.986	1.06	1.05	1.05	1.06	1.05	1	1.24	0.983	0.941	1.01	0.814	0.86	0.833
HCC-827	0.264	0.261	0.241	0.254	0.254	0.837	0.652	0.74	–	0.132	0.569	0.611	0.751	0.831	0.625	0.963	1.03	1.01	0.931	0.969
HOP-62	0.333	0.315	0.345	0.313	0.328	0.988	0.879	0.93	0.774	0.688	0.957	1.04	1.07	0.931	0.797	0.594	0.97	1.15	0.468	0.703
LC-2-ad	0.294	0.28	0.285	0.281	0.307	1.31	1.05	1.14	0.692	0.672	1.02	1.03	1.09	1.15	0.984	0.985	1.12	1.06	1.14	0.94
LCLC-97TM1	0.165	0.184	0.164	0.148	0.179	0.819	0.67	0.632	0.309	0.306	0.789	0.689	0.795	0.705	0.537	0.587	1.27	0.905	0.378	0.521

Cell Line	relative viability ([1]; first compound 0.2 µM)	relative viability ([1]; first compound 0.6325 µM)	relative viability ([1]; first compound 2 µM)	relative viability ([1]; first compound 6.325 µM)	relative viability ([1]; first compound 20 µM)	relative viability ([2]; first compound 0.01 µM)	relative viability ([2]; first compound 0.03162 µM)	relative viability ([2]; first compound 0.1 µM)	relative viability ([2]; first compound 0.3162 µM)	relative viability ([2]; first compound 1 µM)	relative viability ([3]; first compound 0.02 µM)	relative viability ([3]; first compound 0.06325 µM)	relative viability ([3]; first compound 0.2 µM)	relative viability ([3]; first compound 0.6325 µM)	relative viability ([3]; first compound 2 µM)	relative viability ([4]; first compound 0.02 µM)	relative viability ([4]; first compound 0.06325 µM)	relative viability ([4]; first compound 0.2 µM)	relative viability ([4]; first compound 0.6325 µM)	relative viability ([4]; first compound 2 µM)
LCLC-103H	0.474	0.463	0.461	0.504	0.476	0.798	0.804	0.789	0.739	0.39	0.927	0.99	0.884	1.08	0.925	1.19	0.986	1.04	1.2	1.03
LOU-NH91	0.382	0.377	0.465	0.387	0.411	0.349	0.323	0.373	0.349	0.328	0.408	0.324	0.28	0.315	0.282	0.47	0.506	0.532	0.444	0.672
LU99A	0.188	0.189	0.143	0.187	0.175	0.262	0.194	0.229	0.182	0.202	0.26	0.239	0.239	0.199	0.24	1.03	1.15	1.12	1.15	0.922
LXF-289	0.949	0.786	0.963	0.996	0.925	0.736	0.6	0.699	0.534	0.357	0.644	0.757	0.607	0.732	0.616	1.01	1.02	1.03	1.02	0.907
NCI-H23	0.694	0.628	0.764	0.644	0.68	0.22	0.225	0.221	0.212	0.221	0.23	0.204	0.218	0.209	0.221	1.01	1.07	1.06	1.11	1.04
NCI-H322M	0.594	0.624	0.681	0.669	0.573	0.868	0.722	0.545	0.305	0.304	0.661	0.914	0.831	0.946	1.02	1.26	1.43	1.18	1.26	1.35
NCI-H441	0.258	0.262	0.27	0.236	0.236	0.368	0.29	0.321	0.263	0.327	0.317	0.243	0.399	–	0.298	0.308	–	0.522	0.362	0.266
NCI-H460	0.0552	0.0621	0.0636	0.0626	0.0707	0.0219	0.0359	0.0291	0.0265	0.0248	0.032	0.0205	0.0311	0.0341	0.0277	0.961	1.12	1.11	1.24	1.05
NCI-H520	0.75	0.664	–	0.64	0.755	0.211	0.232	0.235	0.208	0.215	0.195	0.212	0.24	0.206	0.232	0.671	0.699	0.529	0.677	0.364
NCI-H596	0.592	0.497	0.469	0.552	0.435	1.11	1.06	0.962	1.01	0.625	0.927	1	1	0.994	0.842	0.994	1.13	1.21	1.24	1.02
NCI-H647	0.164	0.162	0.209	0.134	0.089	0.256	0.103	0.171	0.153	0.0987	0.189	0.224	0.151	0.347	0.154	1.13	0.985	0.912	1.05	0.861
NCI-H650	1.22	0.873	1.03	0.852	1.15	0.803	0.785	0.834	0.497	0.339	0.869	0.83	0.827	0.853	0.713	0.882	1.11	1.03	0.737	0.874
NCI-H661	0.934	0.962	0.877	0.911	0.907	0.973	0.694	0.658	0.486	0.412	0.99	0.917	0.986	0.914	0.909	0.793	0.794	0.719	0.942	0.667
NCI-H838	0.266	0.236	0.258	0.271	0.322	0.284	0.226	0.344	0.309	0.288	0.406	0.372	0.245	0.347	0.268	1.05	0.965	1.01	1.22	0.73
NCI-H1355	1.13	1.08	1	1.06	0.945	0.705	0.726	0.747	0.411	0.246	0.721	0.689	0.706	0.723	0.648	1.23	1.29	1.29	1.19	1.16
NCI-H1437	0.298	0.294	0.32	0.323	0.334	1.02	1.07	1.08	1.23	1.11	1.2	1.21	1.16	1.15	1.2	0.586	0.643	0.551	0.464	0.495
